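Step 1: Grow cells in 96-well plates. Step 2: Expose to compound for 48 hours at 5 concentrations. Step 3: Interpolate endpoints linearly; if unreached, use highest concentration. Definition used: TGI = concentration required for complete inhibition of growth.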
Legend:
Experiment in all cases: DTP human tumour cell line panel, 48 h
786-0 renal = test system: 786-0 renal
A498 renal = test system: A498 renal
A549 NSCLC = test system: A549 NSCLC
ACHN renal = test system: ACHN renal
CAKI-1 renal = test system: CAKI-1 renal
CCRF-CEM leukemia = test system: CCRF-CEM leukemia
COLO 205 colon = test system: COLO 205 colon
DLD-1 colon = test system: DLD-1 colon
DMS 114 small cell lung = test system: DMS 114 small cell lung
DMS 273 small cell lung = test system: DMS 273 small cell lung
EKVX NSCLC = test system: EKVX NSCLC
HCC-2998 colon = test system: HCC-2998 colon
HCT-116 colon = test system: HCT-116 colon
HCT-15 colon = test system: HCT-15 colon
HL-60(TB) leukemia = test system: HL-60(TB) leukemia
HOP-62 NSCLC = test system: HOP-62 NSCLC
HT29 colon = test system: HT29 colon
IGROV1 ovarian = test system: IGROV1 ovarian
K-562 leukemia = test system: K-562 leukemia
KM12 colon = test system: KM12 colon
KM20L2 colon = test system: KM20L2 colon
LOX IMVI melanoma = test system: LOX IMVI melanoma
LXFL 529 NSCLC = test system: LXFL 529 NSCLC
M14 melanoma = test system: M14 melanoma
M19-MEL melanoma = test system: M19-MEL melanoma
MALME-3M melanoma = test system: MALME-3M melanoma
MOLT-4 leukemia = test system: MOLT-4 leukemia
NCI-H226 lung = test system: NCI-H226 lung
NCI-H23 lung = test system: NCI-H23 lung
NCI-H460 lung = test system: NCI-H460 lung
NCI-H522 lung = test system: NCI-H522 lung
OVCAR-3 ovarian = test system: OVCAR-3 ovarian
OVCAR-4 ovarian = test system: OVCAR-4 ovarian
OVCAR-5 ovarian = test system: OVCAR-5 ovarian
OVCAR-8 ovarian = test system: OVCAR-8 ovarian
RPMI-8226 leukemia = test system: RPMI-8226 leukemia
RXF 393 renal = test system: RXF 393 renal
RXF-631 renal = test system: RXF-631 renal
SF-268 CNS = test system: SF-268 CNS
SF-295 CNS = test system: SF-295 CNS
SF-539 CNS = test system: SF-539 CNS
SK-MEL-2 melanoma = test system: SK-MEL-2 melanoma
SK-OV-3 ovarian = test system: SK-OV-3 ovarian
SN12C renal = test system: SN12C renal
SNB-19 CNS = test system: SNB-19 CNS
SNB-78 CNS = test system: SNB-78 CNS
SR leukemia = test system: SR leukemia
SW-620 colon = test system: SW-620 colon
TK-10 renal = test system: TK-10 renal
U251 CNS = test system: U251 CNS
UACC-257 melanoma = test system: UACC-257 melanoma
UACC-62 melanoma = test system: UACC-62 melanoma
UO-31 renal = test system: UO-31 renal
HOP-92 NSCLC = test system: HOP-92 NSCLC
SK-MEL-28 melanoma = test system: SK-MEL-28 melanoma
SK-MEL-5 melanoma = test system: SK-MEL-5 melanoma
SNB-75 CNS = test system: SNB-75 CNS
XF 498 CNS = test system: XF 498 CNS

Measured: TGI

CC(=O)c1ccc(NC(=O)C(=O)CC(=O)c2sc(-n3nc(-c4ccccc4)cc3-c3ccccc3)nc2C)cc1
> 100 µM: 786-0 renal | A498 renal | A549 NSCLC | ACHN renal | CAKI-1 renal | CCRF-CEM leukemia | COLO 205 colon | DLD-1 colon | DMS 114 small cell lung | DMS 273 small cell lung | EKVX NSCLC | HCC-2998 colon | HCT-116 colon | HCT-15 colon | HL-60(TB) leukemia | HOP-62 NSCLC | HT29 colon | IGROV1 ovarian | K-562 leukemia | KM12 colon | KM20L2 colon | LOX IMVI melanoma | LXFL 529 NSCLC | M14 melanoma | M19-MEL melanoma | MALME-3M melanoma | MOLT-4 leukemia | NCI-H226 lung | NCI-H23 lung | NCI-H460 lung | NCI-H522 lung | OVCAR-3 ovarian | OVCAR-4 ovarian | OVCAR-5 ovarian | OVCAR-8 ovarian | RPMI-8226 leukemia | RXF 393 renal | RXF-631 renal | SF-268 CNS | SF-295 CNS | SF-539 CNS | SK-MEL-2 melanoma | SK-OV-3 ovarian | SN12C renal | SNB-19 CNS | SNB-78 CNS | SR leukemia | SW-620 colon | TK-10 renal | U251 CNS | UACC-257 melanoma | UACC-62 melanoma | UO-31 renal

CCCN(CCCC(NC(C)=O)C(=O)NCc1ccccc1)C(=O)N(C)N=O (stereo unspecified)
> 100 µM: 786-0 renal | A498 renal | A549 NSCLC | ACHN renal | CAKI-1 renal | CCRF-CEM leukemia | COLO 205 colon | DLD-1 colon | DMS 114 small cell lung | DMS 273 small cell lung | EKVX NSCLC | HCC-2998 colon | HCT-116 colon | HCT-15 colon | HOP-62 NSCLC | HOP-92 NSCLC | HT29 colon | IGROV1 ovarian | K-562 leukemia | KM12 colon | KM20L2 colon | LOX IMVI melanoma | LXFL 529 NSCLC | M14 melanoma | M19-MEL melanoma | MALME-3M melanoma | MOLT-4 leukemia | NCI-H226 lung | NCI-H23 lung | NCI-H460 lung | NCI-H522 lung | OVCAR-3 ovarian | OVCAR-4 ovarian | OVCAR-5 ovarian | OVCAR-8 ovarian | RPMI-8226 leukemia | RXF 393 renal | SF-268 CNS | SF-295 CNS | SF-539 CNS | SK-MEL-2 melanoma | SK-MEL-28 melanoma | SK-MEL-5 melanoma | SK-OV-3 ovarian | SN12C renal | SNB-75 CNS | SNB-78 CNS | SW-620 colon | TK-10 renal | U251 CNS | UACC-257 melanoma | UACC-62 melanoma | XF 498 CNS

— PubChem BioAssay (NCI)
